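In this assay, cells in 96-well plates receive the compound at five concentrations for 48 hours. Endpoints are linearly interpolated between the surrounding concentrations. GI50 is the concentration that inhibits growth by half.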 Calls of active or inactive are those of the source. Rule as the data show it: active = GI50 up to about 1.1 µM and inactive = higher.
Experiments:
Test in all cases: DTP human tumour cell line panel, 48 h
NCI-H460 = system: NCI-H460
DLD-1 = system: DLD-1
SR = system: SR
CAKI-1 = system: CAKI-1
HT-29 = system: HT-29
OVCAR-3 = system: OVCAR-3
DMS-114 = system: DMS-114
LXFL 529 = system: LXFL 529
RPMI-8226 = system: RPMI-8226
TK-10 = system: TK-10
NCI-H522 = system: NCI-H522
XF498 = system: XF498
HCC 2998 = system: HCC 2998
OVCAR-5 = system: OVCAR-5
EKVX = system: EKVX
786-0 = system: 786-0
M14 = system: M14
Malme-3M = system: Malme-3M
A549 = system: A549
SK-MEL-2 = system: SK-MEL-2
A498 = system: A498
CCRF-CEM = system: CCRF-CEM
K562 = system: K562
RXF 631 = system: RXF 631
SK-OV-3 = system: SK-OV-3
UACC-257 = system: UACC-257
SNB-19 = system: SNB-19
KM-20L2 = system: KM-20L2
HL-60 = system: HL-60
SN12C = system: SN12C
SF-295 = system: SF-295
HCT-116 = system: HCT-116
UO-31 = system: UO-31
OVCAR-8 = system: OVCAR-8
M19-MEL = system: M19-MEL
MOLT-4 = system: MOLT-4
UACC-62 = system: UACC-62
HOP-18 = system: HOP-18
U-251 = system: U-251
DMS-273 = system: DMS-273
NCI-H226 = system: NCI-H226
RXF 393 = system: RXF 393
NCI-H23 = system: NCI-H23
HOP-92 = system: HOP-92
SF-268 = system: SF-268
HOP-62 = system: HOP-62
SK-MEL-28 = system: SK-MEL-28
HCT-15 = system: HCT-15
OVCAR-4 = system: OVCAR-4
SK-MEL-5 = system: SK-MEL-5
ACHN = system: ACHN
KM12 = system: KM12
SF-539 = system: SF-539
SW-620 = system: SW-620
LOX IMVI = system: LOX IMVI
COLO 205 = system: COLO 205
SNB-75 = system: SNB-75
IGROV-1 = system: IGROV-1

Structure (SMILES): CC[C@]1(O)C(=O)OCc2c1cc1n(c2=O)Cc2cc3c(N)cccc3nc2-1
- GI50 (NCI-H460): > 100 µM (inactive)
- GI50 (DLD-1): > 100 µM (inactive)
- GI50 (SR): > 100 µM (inactive)
- GI50 (CAKI-1): > 100 µM (inactive)
- GI50 (HT-29): > 100 µM (inactive)
- GI50 (OVCAR-3): > 100 µM (inactive)
- GI50 (DMS-114): > 100 µM (inactive)
- GI50 (LXFL 529): > 100 µM (inactive)
- GI50 (RPMI-8226): > 100 µM (inactive)
- GI50 (TK-10): > 100 µM (inactive)
- GI50 (NCI-H522): > 100 µM (inactive)
- GI50 (XF498): > 100 µM (inactive)
- GI50 (HCC 2998): > 100 µM (inactive)
- GI50 (OVCAR-5): > 100 µM (inactive)
- GI50 (EKVX): > 100 µM (inactive)
- GI50 (786-0): > 100 µM (inactive)
- GI50 (M14): > 100 µM (inactive)
- GI50 (Malme-3M): > 100 µM (inactive)
- GI50 (A549): > 100 µM (inactive)
- GI50 (SK-MEL-2): > 100 µM (inactive)
- GI50 (A498): > 100 µM (inactive)
- GI50 (CCRF-CEM): > 100 µM (inactive)
- GI50 (K562): > 100 µM (inactive)
- GI50 (RXF 631): > 100 µM (inactive)
- GI50 (SK-OV-3): > 100 µM (inactive)
- GI50 (UACC-257): > 100 µM (inactive)
- GI50 (SNB-19): > 100 µM (inactive)
- GI50 (KM-20L2): > 100 µM (inactive)
- GI50 (HL-60): > 100 µM (inactive)
- GI50 (SN12C): > 100 µM (inactive)
- GI50 (SF-295): > 100 µM (inactive)
- GI50 (HCT-116): > 100 µM (inactive)
- GI50 (UO-31): > 100 µM (inactive)
- GI50 (OVCAR-8): > 100 µM (inactive)
- GI50 (M19-MEL): > 100 µM (inactive)
- GI50 (MOLT-4): > 100 µM (inactive)
- GI50 (UACC-62): > 100 µM (inactive)
- GI50 (HOP-18): > 100 µM (inactive)
- GI50 (U-251): > 100 µM (inactive)
- GI50 (DMS-273): > 100 µM (inactive)
- GI50 (NCI-H226): > 100 µM (inactive)
- GI50 (RXF 393): > 100 µM (inactive)
- GI50 (NCI-H23): > 100 µM (inactive)
- GI50 (HOP-92): > 100 µM (inactive)
- GI50 (SF-268): > 100 µM (inactive)
- GI50 (HOP-62): > 100 µM (inactive)
- GI50 (SK-MEL-28): > 100 µM (inactive)
- GI50 (HCT-15): > 100 µM
- GI50 (OVCAR-4): > 100 µM (inactive)
- GI50 (SK-MEL-5): > 100 µM (inactive)
- GI50 (ACHN): > 100 µM (inactive)
- GI50 (KM12): > 100 µM (inactive)
- GI50 (SF-539): > 100 µM (inactive)
- GI50 (SW-620): > 100 µM (inactive)
- GI50 (LOX IMVI): > 100 µM (inactive)
- GI50 (COLO 205): > 100 µM (inactive)
- GI50 (SNB-75): 20.5 µM (inactive)
- GI50 (IGROV-1): > 100 µM (inactive)

Structure (SMILES): Cc1cc(O)nc(CNC(=O)c2ccc3ccccc3c2)n1
- GI50 (NCI-H460): > 100 µM (inactive)
- GI50 (DLD-1): > 100 µM (inactive)
- GI50 (SR): > 100 µM (inactive)
- GI50 (CAKI-1): > 100 µM (inactive)
- GI50 (HT-29): > 100 µM (inactive)
- GI50 (OVCAR-3): > 100 µM (inactive)
- GI50 (DMS-114): > 100 µM (inactive)
- GI50 (LXFL 529): > 100 µM (inactive)
- GI50 (TK-10): > 100 µM (inactive)
- GI50 (NCI-H522): > 100 µM (inactive)
- GI50 (XF498): > 100 µM (inactive)
- GI50 (HCC 2998): > 100 µM (inactive)
- GI50 (OVCAR-5): > 100 µM (inactive)
- GI50 (EKVX): > 100 µM (inactive)
- GI50 (786-0): > 100 µM (inactive)
- GI50 (M14): > 100 µM (inactive)
- GI50 (Malme-3M): > 100 µM (inactive)
- GI50 (A549): > 100 µM (inactive)
- GI50 (SK-MEL-2): > 100 µM (inactive)
- GI50 (A498): > 100 µM (inactive)
- GI50 (CCRF-CEM): > 100 µM (inactive)
- GI50 (K562): > 100 µM (inactive)
- GI50 (RXF 631): > 100 µM (inactive)
- GI50 (SK-OV-3): > 100 µM (inactive)
- GI50 (UACC-257): > 100 µM (inactive)
- GI50 (SNB-19): > 100 µM (inactive)
- GI50 (KM-20L2): > 100 µM (inactive)
- GI50 (HL-60): > 100 µM (inactive)
- GI50 (SN12C): > 100 µM (inactive)
- GI50 (SF-295): > 100 µM (inactive)
- GI50 (HCT-116): > 100 µM (inactive)
- GI50 (UO-31): > 100 µM (inactive)
- GI50 (OVCAR-8): > 100 µM (inactive)
- GI50 (M19-MEL): > 100 µM (inactive)
- GI50 (MOLT-4): > 100 µM (inactive)
- GI50 (UACC-62): > 100 µM (inactive)
- GI50 (HOP-18): > 100 µM (inactive)
- GI50 (U-251): > 100 µM (inactive)
- GI50 (DMS-273): > 100 µM (inactive)
- GI50 (NCI-H226): > 100 µM (inactive)
- GI50 (RXF 393): > 100 µM (inactive)
- GI50 (NCI-H23): > 100 µM (inactive)
- GI50 (HOP-92): > 100 µM (inactive)
- GI50 (SF-268): > 100 µM (inactive)
- GI50 (HOP-62): > 100 µM (inactive)
- GI50 (SK-MEL-28): > 100 µM (inactive)
- GI50 (HCT-15): > 100 µM
- GI50 (OVCAR-4): > 100 µM (inactive)
- GI50 (SK-MEL-5): > 100 µM (inactive)
- GI50 (ACHN): > 100 µM (inactive)
- GI50 (KM12): > 100 µM (inactive)
- GI50 (SF-539): > 100 µM (inactive)
- GI50 (SW-620): > 100 µM (inactive)
- GI50 (LOX IMVI): > 100 µM (inactive)
- GI50 (COLO 205): > 100 µM (inactive)
- GI50 (SNB-75): > 100 µM (inactive)
- GI50 (IGROV-1): > 100 µM (inactive)

— ChEMBL document CHEMBL1201862, “PubChem BioAssay data set” (2004)
